Reference: patent publication US20160304970A1, “GENE BIOMARKER TO DIAGNOSE METASTIC LIVER CANCER AND METHODS FOR TARGETING THE SAME” (University of Southern California, priority 2015, published 2016)
Several values for one entry are separate records, joined by “and”; a condition that tells them apart may be missing. Equal values may be shown once.

Columns and labels:
TICs [1] = experiment: Seahorse extracellular flux analysis (OCR, ECAR); type: cell-based; conditions: for FCCP-induced OCR: Nanog silenced TICs, ETO 100 μM
Protocol: To measure cellular bioenergetics using extracellular flux, a Seahorse […] Extracellular Flux Analyzer was used following the published protocol (Ahfeldt et al., 2012; Ferrick et al., 2008). […] Cells were plated in gelatin-coated XF 24-well cell culture microplates at 2-7.5×10^4 cells/well (Seahorse Bioscience) and incubated in pre-warmed unbuffered DMEM medium (DMEM containing 2 mM GlutaMAX, 1 mM sodium pyruvate, 1.85 g l^−1 NaCl and 25 mM glucose) for 1 h. The oxygen consumption was measured by the XF24 extracellular flux analyzer (Seahorse Biosciences) in unbuffered DMEM assay medium supplemented with 1 mM pyruvate and 25 mM glucose after 45 to 60 min equilibration.
The characteristic function of mature hepatocytes is metabolism/thermogenesis, driven by the catabolic breakdown of lipids. To distinguish these tumor cells at a functional level, the oxygen consumption rate (OCR) and extracellular acidification rate (ECAR) were analyzed as previously described (Ahfeldt et al.). It was observed that the basal OCR and ECAR rates were highest in the Nanog-silenced TICs. Compounds were added that modulated mitochondrial function sequentially and measured the effect on OCR and ECAR after the addition of each compound. Oligomycin was first administered to determine ATP turnover and the degree of proton leakage. […] After the addition of the electron transport chain decoupler (FCCP), the maximal respiratory capacity was measured. […] Finally, antimycin was administered to inhibit the flux of electrons through complex III and prevent oxygen consumption by the cytochrome c oxidase in the mitochondria as previously described. For determination of individual ETC complex activities, mitochondrial biogenesis was profiled by adding perturbation drugs: 2 μM oligomycin, 0.5 μM FCCP and 5 μM antimycin A/rotenone, in succession. OCR for complexes II-IV was measured by first inhibiting complex I with rotenone; OCR for complexes III-IV was measured by first inhibiting complex II with […]; and OCR for complex IV was measured by first inhibiting complex III with antimycin. The Etomoxir (ETO, 100 μM)-sensitive component of oxygen consumption rate (OCR) represents FAO. Absolute values of OCR were expressed as pmol min^−1 per 10^6 cells and mpH min^−1 per 10^6 cells. OCR and ECAR were determined by plotting the oxygen tension and acidification of the medium in the chamber as a function of time and normalized to protein concentration (picomoles per minute per milligram), respectively. […]
The ECAR was measured over time at 10 min intervals. […] By uncoupling the proton gradient with FCCP, the maximum OCR rates were determined over the next two time intervals (II). By addition of glycolysis inhibitor (2-DG) or CPT1 inhibitor (ETO), the OCR rates were determined over the next two time intervals (III). […]

TICs [2] = experiment: ATP production measurements; type: cell-based; conditions: inhibitors for 4 hr
Protocol: Relative ATP/cell assays were performed in 96-well plates. After cells were treated with inhibitors for 4 hr, culture media was removed. Cell Titer-Glo (100 μl: Promega) and CyQUANT (Invitrogen) were immediately added to each well. Luminescence and fluorescence readings were consecutively measured after room-temperature incubation for 10 min.

TICs [3] = experiment: Cytochrome c release, immunoblot of cytosol and heavy membrane fractions; type: cell-based
mouse TICs = experiment: TIC xenograft in NOG mice, sorafenib resistance; type: in vivo; conditions: mouse TICs subcutaneously in NOG mice
TICs [4] = experiment: ROS levels and spheroid formation of TICs; type: cell-based
Protocol: To evaluate the status of mitochondria in TICs, the MitoTracker® Mitochondrion-selective probes for total mitochondrial mass (MitoTracker® Deep Red FM Invitrogen: M22426) and for oxidized state mitochondria (MitoSOX™ Red mitochondrial superoxide indicator) were added to the media, respectively, and cells subjected to FACS analyses. ROS labeling was performed as per the instructions for CellROX® Oxidative stress reagent Probes (CellROX® green reagent, Invitrogen C10444). In brief, the cells were incubated with staining solution (100 nM) in culture media at 37° C. for 30 minutes. After staining was complete, cells were washed with PBS and analyzed by fluorescent microscopy or flow cytometry.

[5] = CD133 cell viability screening (luminescence, CellTiter-Glo); type: cell-based; conditions: human, CD133 (−) Huh7 cells (freshly MACS-sorted)
Protocol: (§1) CD133(+) and CD133(−) Huh7 cells were freshly sorted using the MACS CD133 micro bead kit (Miltenyi Biotec, 130-050-801) and were seeded in 100 μl medium containing 5000 cells per well in a 96-well plate. Once the cells attached, the FDA approved drug library was added to each well to a final concentration of 20 μg/ml in duplicate. After incubation for 48 hours, the cell viability was determined by a luminescence assay. […] After 16 hours, 1 μl of a […] drug solution was individually added to the 96 wells, resulting in a 20 μg/ml final concentration for most compounds. After 48 hours, CellTiter-Glo® Reagent (G8233, Promega) was added and the luminescence signal was measured with an automated plate reader. The raw data for each well was background-corrected by DMSO control wells on the same plate.

CD133 (+) Huh7 cells = experiment: as above; type: cell-based; conditions: Homo sapiens, Huh-7
Protocol: as §1
Freshly sorted CD133 (+) Huh7 or mouse TICs were plated in 100 μl of medium containing 5000 cells per well in a 96-well plate. After 16 hours, 0.5 μl of a 2 μg/ml, 1 μg/ml, 0.2 μg/ml, 0.1 μg/ml, 0.02 μg/ml, or 0.01 μg/ml compound was added to each well in triplicate, resulting in a 10 μg/ml, 5 μg/ml, 1 μg/ml, 0.5 μg/ml, 0.1 μg/ml, and 0.05 μg/ml final concentration for most compounds, respectively. After 48 hours, the cells were either measured for cell viability by Cell-Glo® Reagent (Promega), or fixed with 1% PFA (paraformaldehyde) and stained with DAPI for high-throughput screening.

TICs [6] = conditions: cited from earlier work
hepatocytes = experiment: Cytochrome c release, immunoblot of cytosol and heavy membrane fractions; type: cell-based; conditions: within 1-3 hours post treatment
TICs [7] = experiment: Stable-isotope glutaminolysis analysis; type: cell-based
Protocol: To test the glutamine utilization, TICs were incubated in 1 mM of [U-^13C5, 2,5-^15N2]-glutamine (Cambridge Isotope Laboratory, Cat # CNLM-1275-H-PK) for 4 hr. When [U-^13C5, 2,5-^15N2]-glutamine is taken up by cells, it loses the ^15N on the 5th carbon and is converted to [U-^13C5, 2-^15N]-glutamate, which loses the ^15N on the 2nd carbon and becomes [U-^13C5]-glutamate after rapid equilibration with TCA cycle intermediate α-ketoglutarate. When glutamine and glutamate were analyzed by gas chromatography mass spectrometry (GC-MS) using electronic impact ionization (EI), their TFA derivatives gave rise to C2-C4 (m/z 152) and C2-C5 (m/z 198) fragments. Thus, the [U-^13C5, 2-^15N]-glutamate has a C2-C4 fragment of m/z 156 (M4; contains 3×^13C and a ^15N) and a C2-C5 fragment of […] (M5; contains 4×^13C and a ^15N), which represent the relative abundance of glutamine taken up by the TICs. On the other hand, [U-^13C5]-glutamate has a C2-C4 fragment of m/z 155 (M3; contains 3×^13C) and a C2-C5 fragment of […] (M4; contains 4×^13C). When the [U-^13C5]-glutamate enters TCA cycle metabolism, it will gradually lose the ^13C carbon after each cycle and generate M2, M1, and M0 C2-C4 fragment and M3, M2, M1, and M0 C2-C5 fragment, which represent the TCA cycle activity. […]

SMILES: O=CC[C@@H](O)[C@H](O)[C@H](O)CO [2-DG, 2-deoxyglucose]
- FCCP-induced OCR (TICs [1]): not
- ATP production (TICs [2]): did not significantly lower ATP production

SMILES: CCOC(=O)[C@@]1(CCCCCCOc2ccc(Cl)cc2)CO1 [ETO, Etomoxir]
- FCCP-induced OCR (TICs [1]): antagonized
- ECAR (TICs [1]; sh-Nanog-TICs): inhibits
- ECAR (TICs [1]; sh-Scr-TICs): does not affect
- cytochrome c release from mitochondria (TICs [3]; in response to sorafenib treatment): enhanced
- ATP production (TICs [2]): reduced ATP production
- xenograft tumor growth / sorafenib resistance (mouse TICs): sensitized TICs to sorafenib

SMILES: C[n+]1ccc(-c2cc[n+](C)cc2)cc1 [Paraquat]
- ROS production (TICs [4]): increased ROS production
- tumor spheroid formation of TICs (TICs [4]): significantly reduced

SMILES: COc1cc(C)c(/C=C/C(C)=C/C=C/C(C)=C/C(=O)O)c(C)c1C [acitretin]
- viability at 48 h, 20 μg/ml [5]: 70.4%
- viability at 20 µg/mL (CD133 (+) Huh7 cells; 20 μg/ml, 48 hours): 12%
- IC50 (CD133 (+) Huh7 cells; CD133 killing effect, FIG. 44A): 7.37 µg/mL and 22.6 µM

SMILES: CNC(=O)c1cc(Oc2ccc(NC(=O)Nc3ccc(Cl)c(C(F)(F)F)c3)cc2)ccn1 [sorafenib]
- cytochrome c localisation following sorafenib treatment (TICs [3]; TICs): remained mostly in the heavy membrane (HM) fraction
- tumor size reduction (TICs [6]; sorafenib combined with knockdown of YAP1 (Chen et al., 2013)): ~55%
- suppression of tumor growth (TICs [6]; sorafenib with antagonism of NANOG in TICs, tumor-bearing mice (Huynh et al., 2009)): ~90%
- cytochrome c localisation following sorafenib treatment (hepatocytes): translocated from mitochondria into the soluble fraction
- xenograft tumor growth / sorafenib resistance (mouse TICs): very resistant

SMILES: C=CC(N)CCC(=O)O (stereo not shown) [vigabatrin]
- percentage of labeled succinate (TICs [7]): does not reduce
